Experimental data reported in patent publication US20230248814A1, “COMPOSITIONS AND METHODS FOR TREATING MERKEL CELL CARCINOMA (MCC) USING HLA CLASS I SPECIFIC EPITOPES” (The Broad Institute, Inc., priority 2020, published 2023).
“Also recorded” adds a separate entry of the source.

Experiments:
USP7 = USP7 (Homo sapiens, UniProt Q93009); settings: cited from earlier work
[1] = system: advanced hormone refractory prostate cancer patients; settings: personalized vaccination combined with low dose estramustine; cited from earlier work
[2] = system: ovarian carcinoma patients; settings: poly-ICLC with NY-ESO-1 peptide vaccine and Montanide; cited from earlier work
healthy human volunteers = settings: one single s.c. administration; 8 subjects vs 4 placebo; cited from earlier work
MCC lines [3] = assay: RNA-seq of class I antigen presentation genes in MCC lines before and after IFN-γ; type: cell-based, human; settings: IFN-γ treatment vs baseline
Procedure: RNA sequencing and analysis. For samples from the MCC tumors and newly generated cell lines, RNA was first assessed for quality using the Agilent Bioanalyzer (DV200 metric). 100 ng of RNA were used as the input for first strand cDNA synthesis using Superscript III reverse transcriptase and Illumina’s TruSeq RNA Access Sample Prep Kit. Synthesis of the second strand of cDNA was followed by indexed adapter ligation with UMI (unique molecular index) adaptors. Subsequent PCR amplification enriched for adapted fragments. Amplified libraries were quantified, normalized, pooled, and hybridized with exome targeting oligos. Following hybridization, bead clean-up, elution, and PCR was performed to prepare library pools for sequencing on Illumina flowcell lanes. Transcriptomes were sequenced to a coverage of at least 50 million reads in pairs.
Gene counts were obtained from BAM files using featureCounts version 2.0.0 (74). Very lowly expressed genes with average count across samples less than 1 were excluded from analysis. […]
Differential expression analysis was carried out between IFN-γ plus and minus samples (adjusting for viral status as a covariate) using the negative binomial GLM Wald test of DESeq2, where significance was assessed using the p-values adjusted for multiple comparisons under default settings. […]

MCC lines [4] = assay: Flow cytometry for HLA-I surface expression in MCC lines after interferon treatment; type: cell-based, human
Procedure: (§1) Flow cytometry. Cells were dissociated with Versene and incubated with 5 µL Human TruStain FcX (Fc Receptor Blocking Solution; Biolegend # 422302) per million cells in 100 µL at room temperature for 10 min. Fluorophore-conjugated antibodies or respective isotype controls were added and incubated for another 30 min at 4° C. Cells were then washed once with PBS and resuspended in PBS or 4% paraformaldehyde and analyzed on an LSR Fortessa cytometer. For HLA-I and HLA-II detection, the following antibodies were used: HLA-ABC (W6/32 clone) conjugated to PE (BioLegend # 311406), APC (BioLegend # 311410), or AF647 (Santa Cruz Biotechnology # sc32235 AF647), and HLA-DR-FITC (BioLegend # 307604).

MCC-301 cell line = assay: Flow cytometry assessment of HLA-DR expression after IFN-γ; type: cell-based, human
Procedure: as §1

MCC cell lines = assay: HLA-I immunopeptidome (LC-MS/MS) of MCC cell lines at baseline and after IFN-γ; type: cell-based, human; settings: for increase in abundance of class I bound peptides (median): IFN-γ stimulation
Procedure: Immunoprecipitation and mass spectrometry analysis, and peptide identification. Up to 40 million or 0.2 g of MCC cells were immunoprecipitated. Briefly, MCC cells were harvested and lysed in ice-cold lysis buffer containing […] (pH 8.0), 1 mM EDTA (pH 8.0), 0.1 M sodium chloride, Triton X-100, 0.06 M octyl β-d-glucopyranoside, 100 U/mL DNAse I, 1 mM phenylmethanesulfonyl fluoride (all from Sigma Aldrich), and protease inhibitor cocktail (Roche Diagnostics). Cell lysate was centrifuged at 12,700 rpm at 4° C. for 22 min. Lysate supernatant was coupled with Gammabind Plus sepharose beads (GE Healthcare) and incubated with 10 µg of HLA-I antibody (Clone W6/32, Santa Cruz Biotechnologies) at 4° C. under rotary agitation for 3 h. After incubation, the lysate-bead-antibody mixture was briefly centrifuged and the supernatant was discarded. Beads were washed with lysis buffer, consisting of wash buffer containing 40 mM Tris (pH 8.0), 1 mM EDTA (pH 8.0), 0.1 M sodium chloride, 0.06 M octyl β-d-glucopyranoside, and 20 mM Tris buffer, without protease inhibitors. Gel loading tips (Fisherbrand) were used to remove as much fluid from beads as possible. Peptides of up to three immunoprecipitations were combined, acid eluted, and analyzed using LC/MS-MS as described previously (35, 82). Briefly, peptides were resuspended in 3% acetonitrile with 5% formic acid and loaded onto an analytical column (20-30 cm with 1.9 µm C18 Reprosil beads, Dr. Maisch HPLC GmbH);, packed in-house). Peptides were eluted in a 6-30% gradient (EasyLC 1000 or 1200, Thermo Fisher Scientific) and analyzed on a QExactive Plus, Fusion Lumos, or Orbitrap Exploris 480 (Thermo Fisher Scientific). For Lumos measurements, peptides were also subjected to fragmentation if they were singly charged. […] Fractions were analyzed on a Fusion Lumos or Orbitrap Exploris 480 equipped with a FAIMSpro interface (83).
Mass spectra were interpreted using Spectrum Mill software package v7.1 pre-Release (Broad Institute, Cambridge, MA). […] MS/MS spectra were searched against a protein sequence database that contained 90,904 entries, including all UCSC Genome Browser genes with hg19 annotation of the genome and its protein coding transcripts (52,788 entries), common human virus sequences (30,181 entries), recurrently mutated proteins observed in tumors from 26 tissues (4,595 entries), 264 common laboratory contaminants as well as protein sequences containing somatic mutations detected in MCC cell lines (3,076 entries). […]

[5] = system: PBMCs from patient MCC-367; assay: IFN-γ ELISpot with autologous PBMCs of patient MCC-367; type: cell-based, human; settings: 10 ug/ml peptide
Procedure: ELISpot. Matching patient peripheral blood mononuclear cells (PBMCs) from patient MCC-367 were thawed, and 10^7 cells per well were seeded in 24 well plates overnight. Cells were stimulated with 10 ug/ml of the LT antigen peptide […] (SEQ ID NO:1) (identified in the MCC-367 HLA peptidome, FIG. 3F) in complete DMEM supplemented with 10% Human serum and 20 ng/ml IL-7 (PeproTech). After 3 days of stimulation, cells were supplemented with 20 units/mL IL-2 (PeproTech). After 10 days of stimulation, cells were cytokine deprived overnight. 50,000 cells per well were stimulated in an IFN- γ ELISpot assay with 10 ug/ml of the […] (SEQ ID NO:1) peptide. DMSO and an HIV-GAG peptide were used as negative controls. CEF (Mabtech) and PHA (Sigma Aldrich) were used as positive controls (not shown). ELISpot and T cell culture methods were described in detail previously (23, 86).

[6] = IFN-γ, 8 IFN-γ-inducible MCC lines

Chain of USP7 (Q93009 whole entry): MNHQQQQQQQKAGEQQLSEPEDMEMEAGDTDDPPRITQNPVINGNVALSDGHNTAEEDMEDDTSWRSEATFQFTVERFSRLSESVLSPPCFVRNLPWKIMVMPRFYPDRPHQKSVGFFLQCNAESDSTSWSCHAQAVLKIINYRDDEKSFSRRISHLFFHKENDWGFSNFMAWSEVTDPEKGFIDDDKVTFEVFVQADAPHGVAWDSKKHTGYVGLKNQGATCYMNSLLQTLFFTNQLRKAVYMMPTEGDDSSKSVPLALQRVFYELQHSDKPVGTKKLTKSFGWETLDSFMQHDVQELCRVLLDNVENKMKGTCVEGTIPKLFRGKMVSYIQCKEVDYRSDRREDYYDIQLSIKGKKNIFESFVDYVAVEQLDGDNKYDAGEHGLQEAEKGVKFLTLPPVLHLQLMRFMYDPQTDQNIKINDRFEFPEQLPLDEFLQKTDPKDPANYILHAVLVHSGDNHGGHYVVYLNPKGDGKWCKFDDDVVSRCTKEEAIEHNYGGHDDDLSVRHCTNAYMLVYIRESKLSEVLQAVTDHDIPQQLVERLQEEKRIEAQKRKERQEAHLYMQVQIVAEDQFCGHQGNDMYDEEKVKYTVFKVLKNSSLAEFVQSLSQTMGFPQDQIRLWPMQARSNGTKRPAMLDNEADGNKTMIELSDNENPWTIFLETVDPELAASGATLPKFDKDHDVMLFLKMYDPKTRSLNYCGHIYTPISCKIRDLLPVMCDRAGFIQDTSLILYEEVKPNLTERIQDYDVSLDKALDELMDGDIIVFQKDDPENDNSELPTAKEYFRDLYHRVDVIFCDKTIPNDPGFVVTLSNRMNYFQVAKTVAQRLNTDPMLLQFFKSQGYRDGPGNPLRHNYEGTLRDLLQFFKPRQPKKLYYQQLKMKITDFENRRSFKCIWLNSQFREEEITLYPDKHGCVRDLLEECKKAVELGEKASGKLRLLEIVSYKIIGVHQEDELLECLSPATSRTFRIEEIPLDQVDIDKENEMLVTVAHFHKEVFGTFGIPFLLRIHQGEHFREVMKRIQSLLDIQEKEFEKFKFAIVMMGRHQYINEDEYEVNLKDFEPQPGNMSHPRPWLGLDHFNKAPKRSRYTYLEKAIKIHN

Compound: CN1CCN(CCC(=O)Nc2ccc3c(=O)n(CC4(O)CCN(C(=O)[C@H](CCCNC(=O)c5ccc6c(Cl)c7c(nc6c5)CCCC7)Cc5ccccc5)CC4)cnc3c2)CC1 [XL177B]
- on-target activity (USP7): on-target activity at higher doses
- potency relative to XL177A (fold less potent) (USP7): 500 fold

Compound: C[C@]12CC[C@@H]3c4ccc(OC(=O)N(CCCl)CCCl)cc4CC[C@H]3[C@@H]1CC[C@@H]2O [estramustine]
- patients with >50% decrease in serum PSA [1]: 54%

Compound: Polyinosinic-Polycytidylic Acid-poly-L-lysine Carboxymethylcellulose [poly-ICLC]
- patients with induction of CD4+ and CD8+ T cell and antibody responses to the peptide [2]: > 90%
- differentially expressed genes versus placebo (healthy human volunteers): up to 212 genes

Compound: IFN-γ: known inducer of HLA-I
- class I gene expression (RNA-seq) (MCC lines [3]): markedly upregulated class I genes; also recorded: markedly upregulated class I gene transcripts
- HLA-I fold increase in MFI (MCC lines [4]; IFN-γ exposure, MCC-336, -350, -358): ≤ 1.15 fold
- HLA I surface expression, fold increase by MFI (median) (MCC lines [4]; [6]): 5.7 fold
- HLA I surface expression, fold increase by MFI (range) (MCC lines [4]; [6]): 2.5 - 12.4 fold
- response of HLA I surface expression to IFN-γ exposure (MCC lines [4]; MCC-336, -350, -358): not responsive
- HLA-DR expression (MCC-301 cell line): inducible HLA-DR expression; also recorded: upregulated HLA-DR expression
- increase in abundance of class I bound peptides (median) (MCC cell lines; across 4 cell lines): 25 fold
- increase in abundance of class I bound peptides (median) (MCC cell lines; across 7 cell lines, comparable input material): 12 fold
- change in frequencies of peptides mapping to each HLA allele (MCC cell lines; cell lines with vs without IFN-γ): increase in HLA-B-presented peptides

Compound: TSDKAIELY
- reactivity of autologous T cells (IFN-γ ELISpot) [5]: confirmed reactivity
- detection of the epitope in the HLA-I peptidome (MCC cell lines; MCC-367 line, baseline vs IFN-γ): detected only after IFN-γ treatment and not at baseline
